Assay results reported in PubChem BioAssay AID1259407 (Chemical Carcinogenesis Research Information System (CCRIS), 2018).
Activity calls are given as the source filed them. How the calls were made is not given here.

Tested on: CCRIS mutagenicity, Ames/micronucleus/aberration tests
Test: CCRIS mutagenicity studies
[1] = Test System: AMES SALMONELLA TYPHIMURIUM, Strain/Indicator: TA98, Metabolic Activation: NONE, Method: STANDARD PLATE
[2] = Test System: AMES SALMONELLA TYPHIMURIUM, Strain/Indicator: TA98, Metabolic Activation: RAT, LIVER, S-9, AROCLOR 1254, Method: STANDARD PLATE
[3] = Test System: AMES SALMONELLA TYPHIMURIUM, Strain/Indicator: TA100, Metabolic Activation: NONE, Method: STANDARD PLATE
[4] = Test System: AMES SALMONELLA TYPHIMURIUM, Strain/Indicator: TA100, Metabolic Activation: RAT, LIVER, S-9, AROCLOR 1254, Method: STANDARD PLATE
[5] = Test System: AMES SALMONELLA TYPHIMURIUM, Strain/Indicator: TA1535, Metabolic Activation: NONE, Method: STANDARD PLATE
[6] = Test System: AMES SALMONELLA TYPHIMURIUM, Strain/Indicator: TA1535, Metabolic Activation: RAT, LIVER, S-9, AROCLOR 1254, Method: STANDARD PLATE
[7] = Test System: AMES SALMONELLA TYPHIMURIUM, Strain/Indicator: TA1537, Metabolic Activation: NONE, Method: STANDARD PLATE
[8] = Test System: AMES SALMONELLA TYPHIMURIUM, Strain/Indicator: TA1537, Metabolic Activation: RAT, LIVER, S-9, AROCLOR 1254, Method: STANDARD PLATE
[9] = Test System: AMES SALMONELLA TYPHIMURIUM, Strain/Indicator: TA98, Metabolic Activation: NONE, Method: PREINCUBATION
[10] = Test System: AMES SALMONELLA TYPHIMURIUM, Strain/Indicator: TA97, Metabolic Activation: NONE, Method: PREINCUBATION

`CN1CCN(C2=Nc3cc(Cl)ccc3Nc3ccccc32)CC1` was tested, and the mutagenic call [1] was “inactive; negative”, the mutagenic call [2] was “inactive; negative” and the mutagenic call [3] was “inactive; negative”. The mutagenic call [4] was “inactive; negative”, the mutagenic call [5] was “inactive; negative” and the mutagenic call [6] was “inactive; negative”. For the same compound, the mutagenic call [7] was “inactive; negative” and the mutagenic call [8] was “inactive; negative”.
For `CCCCCC(O)/C=C/C=O` (stereo not drawn), the mutagenic call (End Point: IN VITRO CHROMOSOMAL ABERRATIONS, Test System: RAT HEPATOCYTES, Metabolic Activation: NONE) was “active; positive”, the mutagenic call (End Point: IN VITRO CHROMOSOMAL ABERRATIONS, Test System: SWINE- BRAIN ENDOTHELIAL CELLS, Metabolic Activation: NONE) was “active; positive” and the mutagenic call (End Point: IN VITRO MICRONUCLEUS, Test System: RAT HEPATOCYTES, Metabolic Activation: NONE) was “active; positive”. The mutagenic call (End Point: IN VITRO MICRONUCLEUS, Test System: SWINE- BRAIN ENDOTHELIAL CELLS, Metabolic Activation: NONE) was “active; positive”, the mutagenic call (Test System: AMES SALMONELLA TYPHIMURIUM, Strain/Indicator: TA100, Metabolic Activation: NONE) was “inactive; negative” and the mutagenic call (Test System: AMES SALMONELLA TYPHIMURIUM, Strain/Indicator: TA104, Metabolic Activation: NONE) was “inactive; negative”. For the same compound, the mutagenic call (Test System: CHINESE HAMSTER V-79, Strain/Indicator: V-79/6-THIOGUANINE, Metabolic Activation: NONE) was “active; positive” and the mutagenic call (Test System: MOUSE LYMPHOMA, Strain/Indicator: L5178Y (TK+/TK-), Metabolic Activation: NONE, Method: SUSPENSION/PLATE) was “active; positive; administered as acetate”.
`O=Nc1c(O)ccc2ccccc12` was tested, and the mutagenic call [9] was “inactive; negative”.
`N[C@@H](Cc1c[nH]c2ccccc12)C(=O)O` was tested, and the mutagenic call (Test System: AMES SALMONELLA TYPHIMURIUM, Strain/Indicator: TA97, Metabolic Activation: HAMSTER, LIVER, S-9, AROCLOR 1254 (10 OR 30%), Method: PREINCUBATION) was “inactive; negative”, the mutagenic call [10] was “inactive; negative” and the mutagenic call (Test System: AMES SALMONELLA TYPHIMURIUM, Strain/Indicator: TA97, Metabolic Activation: RAT, LIVER, S-9, AROCLOR 1254 (10 OR 30%), Method: PREINCUBATION) was “inactive; negative”. The mutagenic call (Test System: AMES SALMONELLA TYPHIMURIUM, Strain/Indicator: TA98, Metabolic Activation: HAMSTER, LIVER, S-9, AROCLOR 1254 (10 OR 30%), Method: PREINCUBATION) was “inactive; negative”, the mutagenic call [9] was “inactive; negative” and the mutagenic call (Test System: AMES SALMONELLA TYPHIMURIUM, Strain/Indicator: TA98, Metabolic Activation: RAT, LIVER, S-9, AROCLOR 1254 (10 OR 30%), Method: PREINCUBATION) was “inactive; negative”. The mutagenic call (Test System: AMES SALMONELLA TYPHIMURIUM, Strain/Indicator: TA100, Metabolic Activation: HAMSTER, LIVER, S-9, AROCLOR 1254 (10 OR 30%), Method: PREINCUBATION) was “inactive; negative”, the mutagenic call (Test System: AMES SALMONELLA TYPHIMURIUM, Strain/Indicator: TA100, Metabolic Activation: NONE, Method: PREINCUBATION) was “inactive; negative” and the mutagenic call (Test System: AMES SALMONELLA TYPHIMURIUM, Strain/Indicator: TA100, Metabolic Activation: RAT, LIVER, S-9, AROCLOR 1254 (10 OR 30%), Method: PREINCUBATION) was “inactive; negative”. For the same compound, the mutagenic call (Test System: AMES SALMONELLA TYPHIMURIUM, Strain/Indicator: TA1535, Metabolic Activation: HAMSTER, LIVER, S-9, AROCLOR 1254 (10 OR 30%), Method: PREINCUBATION) was “inactive; negative”, the mutagenic call (Test System: AMES SALMONELLA TYPHIMURIUM, Strain/Indicator: TA1535, Metabolic Activation: NONE, Method: PREINCUBATION) was “inactive; negative” and the mutagenic call (Test System: AMES SALMONELLA TYPHIMURIUM, Strain/Indicator: TA1535, Metabolic Activation: RAT, LIVER, S-9, AROCLOR 1254 (10 OR 30%), Method: PREINCUBATION) was “inactive; negative”. For the same compound, the mutagenic call (Test System: AMES SALMONELLA TYPHIMURIUM, Strain/Indicator: TA1537, Metabolic Activation: HAMSTER, LIVER, S-9, AROCLOR 1254 (30%), Method: PREINCUBATION) was “inactive; negative”, the mutagenic call (Test System: AMES SALMONELLA TYPHIMURIUM, Strain/Indicator: TA1537, Metabolic Activation: NONE, Method: PREINCUBATION) was “inactive; negative” and the mutagenic call (Test System: AMES SALMONELLA TYPHIMURIUM, Strain/Indicator: TA1537, Metabolic Activation: RAT, LIVER, S-9, AROCLOR 1254 (30%), Method: PREINCUBATION) was “inactive; negative”.
With `O.O.O=C([O-])[C@H](O)[C@@H](O)[C@H](O)[C@H](O)CO.O=C([O-])[C@H](O)[C@@H](O)[C@H](O)[C@H](O)CO.[Fe+2]` the mutagenic call [10] was “inactive; negative”, the mutagenic call (Test System: AMES SALMONELLA TYPHIMURIUM, Strain/Indicator: TA97, Metabolic Activation: RAT, LIVER, S-9, AROCLOR 1254, Method: PREINCUBATION) was “inactive; negative” and the mutagenic call (Test System: AMES SALMONELLA TYPHIMURIUM, Strain/Indicator: TA102, Metabolic Activation: NONE, Method: PREINCUBATION) was “inactive; negative”. The mutagenic call (Test System: AMES SALMONELLA TYPHIMURIUM, Strain/Indicator: TA102, Metabolic Activation: RAT, LIVER, S-9, AROCLOR 1254, Method: PREINCUBATION) was “inactive; negative”.
For `Cc1cc(C)nc(SC(=O)OC(C)(C)C)n1`, the mutagenic call [1] was “inactive; negative”, the mutagenic call [2] was “inactive; negative” and the mutagenic call [3] was “inactive; negative”. For the same compound, the mutagenic call [4] was “inactive; negative”, the mutagenic call [5] was “inactive; negative” and the mutagenic call [6] was “inactive; negative”. For the same compound, the mutagenic call [7] was “inactive; negative” and the mutagenic call [8] was “inactive; negative”.
With `CCc1cc(-c2ccccc2)cc(CC)c1N` the mutagenic call [1] was “inactive; negative”, the mutagenic call (Test System: AMES SALMONELLA TYPHIMURIUM, Strain/Indicator: TA98, Metabolic Activation: RAT LIVER S-9, AROCLOR, Method: STANDARD PLATE) was “inactive; negative” and the mutagenic call [3] was “inactive; negative”. The mutagenic call (Test System: AMES SALMONELLA TYPHIMURIUM, Strain/Indicator: TA100, Metabolic Activation: RAT LIVER S-9, AROCLOR, Method: STANDARD PLATE) was “inactive; negative”.
